The values that follow come from the Deep4Chem optical property database.

This data set in a line: photoluminescence quantum yield (fraction); solvent given as SMILES.

As to `O=c1oc2ccccc2c(O)c1C(CC(O)c1ccc(-c2ccc(Br)cc2)cc1)c1ccccc1` (centres undefined), the photoluminescence quantum yield runs as follows: (in CC#N) 0.06; (in CCO) 0.058; (in CO) 0.034; (in O) 0.017.

On to `N#Cc1c(-n2c3ccccc3c3ccccc32)c(-n2c3ccc(-c4ccccc4)cc3c3cc(-c4ccccc4)ccc32)c(-n2c3ccccc3c3ccccc32)c(-n2c3ccc(-c4ccccc4)cc3c3cc(-c4ccccc4)ccc32)c1-n1c2ccccc2c2ccccc21`, for which the photoluminescence quantum yield is, setting by setting: (in Cc1ccccc1) 0.81; (in c1cc(-c2cccc(-n3c4ccccc4c4ccccc43)c2)cc(-n2c3ccccc3c3ccccc32)c1) 0.8.

`Cc1ccc(N(c2ccc(C)cc2)c2ccc(Oc3nnc(Cl)nn3)cc2)cc1` registered a photoluminescence quantum yield (in ClCCl) of 0.0006.

With `O=P1(c2ccccc2)C(c2cccs2)=C(c2cccs2)c2ccccc21` (centres undefined), the photoluminescence quantum yield (in C1CCOC1) was 0.006.

With `Cc1ccccc1C1=C2C=c3c(oc4ccccc34)=[N+]2[B-](F)(F)n2c1cc1c3ccccc3oc12`, the photoluminescence quantum yield came to 0.88 (in C1CCCCC1), 0.93 (in CCOC(C)=O) and 0.88 (in CO).

`CC(C)(C)c1ccc(C#Cc2cc3c(C#Cc4ccc(C(C)(C)C)cc4)c(C#Cc4ccc(C(C)(C)C)cc4)c4cc(C#Cc5ccc(C(C)(C)C)cc5)cc5c(C#Cc6ccc(C(C)(C)C)cc6)c(C#Cc6ccc(C(C)(C)C)cc6)c(c2)c3c45)cc1` came in with a photoluminescence quantum yield (in ClCCl) of 0.23.

Turning to `CCCCN(CCCC)c1ccc(/C=C/c2ccc(-c3ccc(/C=C/c4ccc(N(CCCC)CCCC)cc4)cc3)cc2)cc1`, the photoluminescence quantum yield was 0.89 (in CS(C)=O) and 0.81 (in Cc1ccccc1).

Compound `COc1ccccc1C1=[N+]2C(=Cc3c4c(c(-c5ccccc5OC)n3[B-]2(F)F)C2CCC4CC2)C2=C1C1CCC2CC1` returned a photoluminescence quantum yield (in ClCCl) of 0.77.

In the case of `CC1(C)c2cc(C#N)ccc2-c2ccc(N3c4ccccc4Oc4ccccc43)cc21`, the photoluminescence quantum yield runs as follows: (in C1CCCCC1) 0.044; (in C1CCOC1) 0.08; (in CC#N) 0.001; (in Cc1ccccc1) 0.089; (in ClC(Cl)Cl) 0.11.

Turning to `c1ccc2c(c1)-c1ccccc1C21c2ccccc2N(c2ccc(-c3nc([C@]45CC6CC(C[C@@H](C6)C4)C5)nc([C@]45C[C@H]6C[C@@H](C[C@H](C6)C4)C5)n3)cc2)c2ccccc21`, the photoluminescence quantum yield amounted to 0.67 (in CC1(C)c2ccccc2N(c2cccc(N3c4ccccc4C(C)(C)c4ccccc43)c2)c2ccccc21), 0.76 (in CC(C)(C)c1ccc(-n2c3ccc([Si](c4ccccc4)(c4ccccc4)c4ccccc4)cc3c3cc([Si](c4ccccc4)(c4ccccc4)c4ccccc4)ccc32)cc1), 0.36 (in Cc1cc(-n2c3ccccc3c3ccccc32)ccc1-c1ccc(-n2c3ccccc3c3ccccc32)cc1C) and 0.84 (in O=P(c1ccccc1)(c1ccccc1)c1ccc([Si](c2ccccc2)(c2ccccc2)c2ccccc2)cc1).

Regarding `COc1ccc(-c2nc(C)cc(-c3ccc(-n4c5ccccc5c5ccccc54)cc3)n2)cc1`, the photoluminescence quantum yield turned out to be 0.47 (in C1CCOC1), 0.68 (in CN(C)C=O), 0.46 (in Cc1ccccc1) and 0.65 (in ClC(Cl)Cl).

For `CCOC(=O)COc1ccc(/C=C/C2=C3c4ccccc4C(c4[nH]c(C)cc4C)=[N+]3[B-](F)(F)n3c(C)cc(C)c32)cc1`, the photoluminescence quantum yield worked out at 0.012 (in C1CCOC1); 0.005 (in CC#N); 0.013 (in CCCCCC); 0.002 (in CO); 0.012 (in Cc1ccccc1); 0.014 (in ClCCl).

For `CC1(C)c2ccccc2-c2cc3c4cc(-n5c6ccccc6c6ccccc65)ccc4n(-c4ccc(-c5nc(-c6ccccc6)nc(-c6ccccc6)n5)cc4)c3cc21`, the photoluminescence quantum yield (in O=P(c1ccccc1)(c1ccccc1)c1ccccc1Oc1ccccc1P(=O)(c1ccccc1)c1ccccc1) is 0.84.

The compound `COC(=O)c1nc2c(OCc3ccccc3)nc(N)nc2n1Cc1ccccc1` displayed a photoluminescence quantum yield (in C1COCCO1) of 0.95, a photoluminescence quantum yield (in CC#N) of 0.87, a photoluminescence quantum yield (in CO) of 0.92 and a photoluminescence quantum yield (in ClCCl) of 0.95.

For `CN(C)c1ccc(-c2ccc(-c3cc(-c4ccccc4)c(-c4ccccc4)c(-c4ccccc4)c3-c3ccccc3)nc2)cc1`, the photoluminescence quantum yield (in ClC(Cl)Cl) came to 0.33.

For the compound `Clc1ccc(-c2nc3ccccc3c3cc4ccccn4c23)s1`, the photoluminescence quantum yield (in CS(C)=O) was determined as 0.11.

The compound `CCN(CC)c1ccc2cc(-c3cn4cc5ccccc5cc4n3)c(=O)oc2c1` showed a photoluminescence quantum yield (in ClC(Cl)Cl) of 0.92.

Regarding `COC(=O)C[C@H](NC(=O)[C@H](Cc1c[nH]c2ccccc12)NC(=O)OC(C)(C)C)C(=O)OC`, the photoluminescence quantum yield was determined as 0.36 (in CC#N), 0.39 (in CCOC(C)=O) and 0.27 (in CO).

Compound `CC1=[N+]2C(=Cc3cccn3[B-]2(F)F)C=C1` registered a photoluminescence quantum yield (in CCCCCC) of 0.96, a photoluminescence quantum yield (in CO) of 1 and a photoluminescence quantum yield (in ClCCl) of 0.92.

Under “in CC#N”, `N#Cc1nn(-c2ccccc2C(F)(F)F)nc1N1CCCC1` came in with a photoluminescence quantum yield of 0.71.

The compound `COC(=O)CCC1=CC(C#Cc2cccs2)=[N+]2C1=Cc1c(CCC(=O)OC)cc(C#Cc3cccs3)n1[B-]2(F)F` had a photoluminescence quantum yield (in ClCCl) of 0.17.

Turning to `CCOC(=O)CSc1nc2c(c(C#N)c1C#N)CCCCCC2`, under “in c1ccccc1”, the photoluminescence quantum yield amounted to 0.039.

Take `F[B-]1(F)n2c(c3cccc4cccc2c43)=Nc2sc3ccccc3[n+]21`: the photoluminescence quantum yield worked out at 0.89 (in C1CCOC1); 0.97 (in CC#N); 0.87 (in CCCCCC); 0.76 (in Cc1ccccc1); 0.85 (in ClCCl).

Turning to `CC(C)(C)c1ccc2c(c1)c1cc(C(C)(C)C)ccc1n2-c1ccc(C#Cc2ccc(C#Cc3ccc(-n4c5ccc(C(C)(C)C)cc5c5cc(C(C)(C)C)ccc54)cc3)cc2)cc1`, the photoluminescence quantum yield was determined as 0.67 (in CC#N); 0.89 (in CCCCC); 0.41 (in CO); 0.86 (in Cc1ccccc1); 0.69 (in ClC(Cl)Cl); 0.89 (in ClCCl).

As to `F[B-]1(F)n2c(-c3ccccc3)cc(-c3ccccc3)c2C(c2ccccc2)=C2C(c3ccccc3)=CC(c3ccccc3)=[N+]21`, the photoluminescence quantum yield (in C1CCOC1) stood at 0.31.

`CN(C)c1ccc(/C=C/c2cnc(/C=C/c3ccc(C#N)cc3)o2)cc1`: for the setting “in ClCCl”, the photoluminescence quantum yield is 0.5.

`CC1=CC(C)=[N+]2C1=C(c1ccc(-c3ccc(O)cc3)s1)c1c(C)cc(C)n1[B-]2(F)F`: the photoluminescence quantum yield (in Cc1ccccc1) came to 0.069.

`CC1=C(c2ccc(N(c3ccccc3)c3ccccc3)cc2)C(C)=[N+]2C1=C(c1c(-c3ccccn3)nc3ccccn13)c1c(C)cc(C)n1[B-]2(F)F` showed a photoluminescence quantum yield (in ClCCl) of 0.0038.

The compound `CC(C)(C)c1ccc2c(c1)c1cc(C(C)(C)C)ccc1n2-c1cccc2c1Oc1c(-c3nc(-c4ccccc4)nc(-c4ccccc4)n3)cccc1C2(C)C` returned a photoluminescence quantum yield (in Cc1ccccc1) of 0.06.

In the case of `O=C1C=CC2=Cc3ccccc3B(O)N12`, the photoluminescence quantum yield amounted to 0.97 (in CC#N), 0.1 (in CO), 0.01 (in CS(C)=O) and 0.65 (in ClC(Cl)Cl).

For the compound `c1ccc(N(c2ccccc2)c2ccc3c4cccc5c(N(c6ccccc6)c6ccccc6)ccc(c6cccc2c63)c54)cc1`, for the setting “in ClCCl”, the photoluminescence quantum yield was determined as 0.65.

With `CN(C)c1ccc(/C=C2\CC/C(=C\c3ccc(C#N)cc3)C2=O)cc1`, the photoluminescence quantum yield is 0.027 (in C1CCOC1); 0.0036 (in CC#N); 0.0095 (in CC(C)=O); 0.026 (in CC(C)O); 0.017 (in CCCCO); 0.14 (in CCCCOC(C)=O). Moreover, the photoluminescence quantum yield runs as follows: (in CCCO) 0.013; (in CCO) 0.0061; (in CCOC(=O)c1ccccc1) 0.18; (in CCOC(C)=O) 0.09; (in CCOCC) 0.074; (in CN(C)C=O) 0.0066. In addition, the photoluminescence quantum yield runs as follows: (in CO) 0.0027; (in CS(C)=O) 0.0074; (in Cc1ccccc1) 0.05; (in ClC(Cl)(Cl)Cl) 0.019; (in ClC(Cl)Cl) 0.3; (in ClCCl) 0.17. Besides, the photoluminescence quantum yield by setting is: (in Clc1ccccc1Cl) 0.29; (in O=C1CCCC1) 0.034; (in S=C=S) 0.034; (in c1ccccc1) 0.066; (in c1ccncc1) 0.051.

`CC(C)[Si](C#Cc1c2cc3ccccc3cc2c(C#C[Si](C(C)C)(C(C)C)C(C)C)c2nc3c(nc12)C1c2ccccc2C3c2ccccc21)(C(C)C)C(C)C`: for the setting “in CCCCCC”, the photoluminescence quantum yield is 0.54.

Turning to `COC1(OC)C2(Cl)c3nc4cc(-c5cccs5)ccc4nc3C1(Cl)C1C[C@H]3[C@@H](CC12)C1(Cl)c2nc4ccc(-c5cccs5)cc4nc2C3(Cl)C1(OC)OC` (some centres undefined), the photoluminescence quantum yield was found to be 0.57 (in CC#N); 0.22 (in CCOC(C)=O); 0.49 (in CO); 0.13 (in Cc1ccccc1); 0.35 (in ClC(Cl)Cl); 0.33 (in ClCCl).

`F[B-]1(F)n2c(Cl)c(Cl)c(Br)c2C(Oc2ccccc2)=C2C(Br)=C(Cl)C(Cl)=[N+]21` came in with a photoluminescence quantum yield (in ClCCl) of 0.05.

Where the note is “in Cc1ccccc1”, `CC1(C)c2cccc(-c3nc(-c4ccccc4)nc(-c4ccccc4)n3)c2Oc2c(N3c4ccccc4Sc4ccccc43)cccc21` returned a photoluminescence quantum yield of 0.077.

In turn, `FC(F)(F)c1ccccc1B1c2ccccc2Nc2ccccc21` yielded a photoluminescence quantum yield (in ClCCl) of 0.85.

Turning to `COc1c2ccccc2c(OC)c2c1c1ccc(C)cc1n2C`, the photoluminescence quantum yield reads like this: (in C1CCCCC1) 0.4; (in CC#N) 0.42; (in CO) 0.34; (in ClCCl) 0.57.
